From PubChem BioAssay AID330 (DTP/NCI, 2004)
Where “and” joins values, the source holds several entries; their conditions need not be identical. Equal entries are not always repeated. Toxic doses and inconclusive results are not listed.

Test system: P388 leukemia ip, CD2F1 mice, survival T/C
Experiment: NCI In Vivo Anticancer Drug Screen. Data for tumor model P388 Leukemia (intraperitoneal) in CD2F1 (CDF1) mice
Settings: endpoint: median survival time, higher = longer survival
Summary of the method: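 Mice carrying the transplanted tumor received test compound or vehicle. Survival was recorded in each group, and the value is the treated-group measurement divided by that of the vehicle-treated control group.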

[1] = dose: 50.0 mg/kg/injection, schedule: Q01DX005 (ip), vehicle: Klucel (hydroxypropylcellulose) (HPC)
[2] = dose: 100.0 mg/kg/injection, schedule: Q01DX005 (ip), vehicle: Klucel (hydroxypropylcellulose) (HPC)
[3] = dose: 200.0 mg/kg/injection, schedule: Q01DX005 (ip), vehicle: Klucel (hydroxypropylcellulose) (HPC)
[4] = dose: 60.0 mg/kg/injection, schedule: Q01DX005 (ip), vehicle: Klucel (hydroxypropylcellulose) (HPC)
[5] = dose: 120.0 mg/kg/injection, schedule: Q01DX005 (ip), vehicle: Klucel (hydroxypropylcellulose) (HPC)
[6] = dose: 50.0 mg/kg/injection, schedule: Q01DX009 (ip), vehicle: saline with Tween-80
[7] = dose: 100.0 mg/kg/injection, schedule: Q01DX009 (ip), vehicle: saline with Tween-80
[8] = dose: 200.0 mg/kg/injection, schedule: Q01DX009 (ip), vehicle: saline with Tween-80
[9] = dose: 100.0 mg/kg/injection, schedule: Q04DX003 (ip), vehicle: saline with Tween-80
[10] = dose: 200.0 mg/kg/injection, schedule: Q04DX003 (ip), vehicle: saline with Tween-80
[11] = dose: 25.0 mg/kg/injection, schedule: Q01DX009 (ip), vehicle: saline with Tween-80
[12] = dose: 50.0 mg/kg/injection, schedule: Q01DX009 (ip), vehicle: Klucel (hydroxypropylcellulose) (HPC)

O=C(N/N=C\c1cc(Br)cc(Br)c1O)N/N=C/c1cc(Br)cc(Br)c1O
T/C (dose: 6.25 mg/kg/injection, schedule: Q01DX009 (ip), vehicle: saline with Tween-80): 100 % of control and 110 % of control | T/C (dose: 12.5 mg/kg/injection, schedule: Q01DX009 (ip), vehicle: distilled water + Tween-80): 98 % of control | T/C (dose: 20.0 mg/kg/injection, schedule: Q01DX005 (ip), vehicle: suspension in saline): 106 % of control | T/C (dose: 20.0 mg/kg/injection, schedule: Q01DX005 (iv), vehicle: suspension in saline): 101 % of control | T/C (dose: 25.0 mg/kg/injection, schedule: Q01DX009 (ip), vehicle: distilled water + Tween-80): 106 % of control | T/C (dose: 40.0 mg/kg/injection, schedule: Q01DX005 (iv), vehicle: suspension in saline): 101 % of control | T/C (dose: 50.0 mg/kg/injection, schedule: Q01DX009 (ip), vehicle: distilled water + Tween-80): 120 % of control | T/C (dose: 50.0 mg/kg/injection, schedule: Q01DX009 (oral), vehicle: saline with Tween-80): 103 % of control | T/C (dose: 80.0 mg/kg/injection, schedule: Q01DX005 (iv), vehicle: suspension in saline): 100 % of control | T/C (dose: 100.0 mg/kg/injection, schedule: Q01DX009 (oral), vehicle: saline with Tween-80): 105 % of control | T/C (dose: 160.0 mg/kg/injection, schedule: Q01DX005 (ip), vehicle: suspension in saline): 158 % of control | T/C (dose: 160.0 mg/kg/injection, schedule: Q01DX005 (iv), vehicle: suspension in saline): 100 % of control | T/C (dose: 200.0 mg/kg/injection, schedule: Q01DX009 (oral), vehicle: saline with Tween-80): 108 % of control | T/C (dose: 280.0 mg/kg/injection, schedule: Q01DX005 (ip), vehicle: suspension in saline): 160 % of control | T/C (dose: 400.0 mg/kg/injection, schedule: Q01DX009 (oral), vehicle: saline with Tween-80): 104 % of control | T/C (dose: 800.0 mg/kg/injection, schedule: Q01DX009 (oral), vehicle: saline with Tween-80): 104 % of control | T/C (dose: 1600.0 mg/kg/injection, schedule: Q01DX009 (oral), vehicle: saline with Tween-80): 106 % of control

CC(Cl)CN1COc2ccc3ccc4c(c3c2C1)CN(CC(C)Cl)CO4 (stereo not given)
T/C [1]: 106 % of control and 107 % of control and 117 % of control | T/C [2]: 107 % of control and 112 % of control and 123 % of control | T/C [3]: 117 % of control and 124 % of control | T/C (dose: 400.0 mg/kg/injection, schedule: Q01DX005 (ip), vehicle: Klucel (hydroxypropylcellulose) (HPC)): 116 % of control

[Cl][Cu][Cl].c1ccc2c(c1)Sc1ccccc1[N+]2=c1ccc2nc3ccccc3sc-2c1
T/C [4]: 87 % of control | T/C [5]: 95 % of control

CCc1cccc(CC)c1NC(=S)NC(=O)c1ccccc1
T/C [6]: 95 % of control | T/C [7]: 96 % of control | T/C [8]: 96 % of control

COC(=O)c1cc([N+](=O)[O-])ccc1N=NNc1ccccc1
T/C (dose: 12.5 mg/kg/injection, schedule: Q01DX009 (ip), vehicle: saline): 106 % of control | T/C (dose: 25.0 mg/kg/injection, schedule: Q01DX009 (ip), vehicle: saline): 103 % of control and 95 % of control | T/C (dose: 50.0 mg/kg/injection, schedule: Q01DX009 (ip), vehicle: saline): 100 % of control and 105 % of control and 95 % of control | T/C (dose: 200.0 mg/kg/injection, schedule: Q01DX009 (ip), vehicle: saline): 87 % of control

COc1ccccc1/C=C1/C(=O)ON=C1C
T/C (dose: 60.0 mg/kg/injection, schedule: Q01DX005 (ip), vehicle: saline with Tween-80): 100 % of control | T/C (dose: 120.0 mg/kg/injection, schedule: Q01DX005 (ip), vehicle: saline with Tween-80): 98 % of control | T/C (dose: 240.0 mg/kg/injection, schedule: Q01DX005 (ip), vehicle: saline with Tween-80): 108 % of control

COc1cc2c(c(OC)c1OC)-c1ccc(SC)c(=O)cc1[C@@H](NC(=O)Oc1ccccc1)CC2
T/C (dose: 5.0 mg/kg/injection, schedule: Q01DX009 (ip), vehicle: Klucel (hydroxypropylcellulose) (HPC)): 164 % of control

O=C(NC(=O)c1c(F)cccc1F)Nc1ccc(C(O)(C(F)(F)F)C(F)(F)F)cc1
T/C (dose: 50.0 mg/kg/injection, schedule: Q01DX005 (ip), vehicle: saline with Tween-80): 102 % of control | T/C (dose: 100.0 mg/kg/injection, schedule: Q01DX005 (ip), vehicle: saline with Tween-80): 100 % of control | T/C (dose: 200.0 mg/kg/injection, schedule: Q01DX005 (ip), vehicle: saline with Tween-80): 109 % of control

CN(C)CCc1ccc2ccc3cccc4ccc1c2c34
T/C [6]: 107 % of control | T/C [7]: 102 % of control | T/C [8]: 108 % of control

O=C(O)CCC12CCCCC1=NC1(CCCCC1)NC2=O (stereo not given)
T/C [4]: 104 % of control | T/C (dose: 60.0 mg/kg/injection, schedule: Q02DX002 (ip), vehicle: Klucel (hydroxypropylcellulose) (HPC)): 102 % of control | T/C [5]: 100 % of control | T/C (dose: 120.0 mg/kg/injection, schedule: Q02DX002 (ip), vehicle: Klucel (hydroxypropylcellulose) (HPC)): 97 % of control | T/C (dose: 240.0 mg/kg/injection, schedule: Q01DX005 (ip), vehicle: Klucel (hydroxypropylcellulose) (HPC)): 100 % of control | T/C (dose: 240.0 mg/kg/injection, schedule: Q02DX002 (ip), vehicle: Klucel (hydroxypropylcellulose) (HPC)): 103 % of control

COC(=O)c1ccccc1S(=O)(=O)N1CCOCC1
T/C [1]: 99 % of control | T/C [2]: 99 % of control | T/C [3]: 98 % of control

CN(C)C1c2cc(Cl)ccc2-c2c(Cl)cc(Cl)cc21 (stereo not given)
T/C [1]: 100 % of control and 91 % of control | T/C [2]: 96 % of control | T/C [3]: 91 % of control and 92 % of control

Nc1ccc2oc3ccccc3c2c1
T/C [9]: 100 % of control | T/C [10]: 103 % of control

Cc1cc(C(=O)O)c(C)c(S(=O)(=O)O)c1
T/C (dose: 12.5 mg/kg/injection, schedule: Q01DX009 (ip), vehicle: water): 102 % of control | T/C (dose: 25.0 mg/kg/injection, schedule: Q01DX009 (ip), vehicle: water): 97 % of control | T/C (dose: 50.0 mg/kg/injection, schedule: Q01DX009 (ip), vehicle: water): 92 % of control | T/C (dose: 100.0 mg/kg/injection, schedule: Q01DX009 (ip), vehicle: water): 102 % of control | T/C (dose: 200.0 mg/kg/injection, schedule: Q01DX009 (ip), vehicle: water): 99 % of control

CC1(C)Oc2ccccc2O1
T/C (dose: 12.5 mg/kg/injection, schedule: Q01DX009 (ip), vehicle: saline with Tween-80): 96 % of control | T/C [11]: 108 % of control | T/C [6]: 107 % of control | T/C [7]: 113 % of control

CCN(CC)C(=O)N1CC1
T/C (dose: 100.0 mg/kg/injection, schedule: Q04DX002 (ip), vehicle: saline): 102 % of control | T/C (dose: 200.0 mg/kg/injection, schedule: Q04DX002 (ip), vehicle: saline): 100 % of control

Nc1nc(Nc2ccccc2)nc(SCc2ccccc2)n1
T/C [11]: 99 % of control | T/C [6]: 90 % of control | T/C [7]: 88 % of control

C/C(=N\N=C(N)N)c1c(C)nn(C(=N)N)c1C
T/C (dose: 15.0 mg/kg/injection, schedule: Q01DX005 (ip), vehicle: saline): 99 % of control | T/C (dose: 30.0 mg/kg/injection, schedule: Q01DX005 (ip), vehicle: saline): 98 % of control | T/C (dose: 60.0 mg/kg/injection, schedule: Q01DX005 (ip), vehicle: saline): 99 % of control and 111 % of control

CCn1c(=O)c2[nH]c(Cl)nc2n(C)c1=O
T/C (dose: 16.0 mg/kg/injection, schedule: Q01DX009 (ip), vehicle: Klucel (hydroxypropylcellulose) (HPC)): 111 % of control | T/C (dose: 25.0 mg/kg/injection, schedule: Q01DX009 (ip), vehicle: Klucel (hydroxypropylcellulose) (HPC)): 102 % of control | T/C (dose: 32.0 mg/kg/injection, schedule: Q01DX009 (ip), vehicle: Klucel (hydroxypropylcellulose) (HPC)): 107 % of control | T/C [12]: 94 % of control | T/C (dose: 64.0 mg/kg/injection, schedule: Q01DX009 (ip), vehicle: Klucel (hydroxypropylcellulose) (HPC)): 102 % of control

O=NN(CCCl)C(=O)Nc1ccc(Br)cn1
T/C (dose: 50.0 mg/kg/injection, schedule: Q04DX003 (ip), vehicle: saline with Tween-80): 100 % of control | T/C [7]: 150 % of control | T/C [9]: 100 % of control | T/C [8]: 150 % of control | T/C [10]: 118 % of control

CCOC(=O)C1Sc2c(c(=O)n(C)c3ccccc23)C1=O (stereo not given)
T/C [1]: 101 % of control and 107 % of control and 110 % of control | T/C [2]: 99 % of control and 105 % of control and 108 % of control | T/C [3]: 108 % of control and 112 % of control and 123 % of control

O=C(CSC(c1ccccc1)(c1ccccc1)c1ccccc1)c1ccc([N+](=O)[O-])cc1
T/C [1]: 100 % of control | T/C [2]: 105 % of control | T/C [3]: 95 % of control

COc1ccc(/C(C#N)=C/c2cccs2)cc1
T/C [12]: 111 % of control | T/C (dose: 100.0 mg/kg/injection, schedule: Q01DX009 (ip), vehicle: Klucel (hydroxypropylcellulose) (HPC)): 102 % of control | T/C (dose: 200.0 mg/kg/injection, schedule: Q01DX009 (ip), vehicle: Klucel (hydroxypropylcellulose) (HPC)): 104 % of control
